In patent US8664257B2, “Oxygen-substituted 3-heteroaroylamino-propionic acid derivatives and their use as pharmaceuticals” (Sanofi, priority 2010, dated 2014):

target: T1, Recombinant human cathepsin A (Homo sapiens, UniProt P10619); experiment: Cathepsin A inhibitory activity; format: biochemical; conditions: pharmacological test "Cathepsin A inhibitory activity"; IC50 given as class A/B/C; read-out: Activity (2): Cathepsin A inhibitory activity, IC50 class
T1 construct: Recombinant human cathepsin A (residues 29-480, with a C-terminal 10-His tag); 10-His (C); purchased R&D Systems 1049-SE
T1 sequence (P10619 29-312 limits assumed): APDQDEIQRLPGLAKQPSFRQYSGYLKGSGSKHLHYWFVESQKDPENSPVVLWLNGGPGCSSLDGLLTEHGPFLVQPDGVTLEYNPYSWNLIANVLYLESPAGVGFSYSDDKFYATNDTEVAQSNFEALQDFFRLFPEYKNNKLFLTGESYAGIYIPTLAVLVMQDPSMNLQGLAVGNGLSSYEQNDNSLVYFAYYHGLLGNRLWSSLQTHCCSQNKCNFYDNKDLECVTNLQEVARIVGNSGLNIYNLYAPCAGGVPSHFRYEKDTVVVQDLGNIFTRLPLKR
T1 sequence (P10619 327-480 limits assumed): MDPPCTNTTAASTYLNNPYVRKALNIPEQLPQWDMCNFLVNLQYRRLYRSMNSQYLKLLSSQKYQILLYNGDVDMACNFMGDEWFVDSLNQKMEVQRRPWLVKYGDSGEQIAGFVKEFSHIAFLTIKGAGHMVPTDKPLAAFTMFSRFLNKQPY
In short: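 Human cathepsin A (res. 29-480, C-His10) pre-activated with cathepsin L (MES pH 6.0, DTT, 15 min, 37 °C; quenched with 10 μM E-64). Enzyme (833 ng/ml) preincubated 15 min RT with compound in MES pH 5.5/DTT, then 2 μM Bodipy FL-bradykinin for 15 min RT. Capillary electrophoresis product/substrate peak areas; IC50 from % inhibition.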

SMILES | IC50
O=C(O)C[C@H](NC(=O)c1cc(O)n(-c2ccccc2F)n1)c1cccc(C(F)(F)F)c1 [Example 241] | 0.1 to 1 µM
O=C(O)CC(NC(=O)c1cc(O)n(-c2ccccc2F)n1)c1ccc(-c2cccc(F)c2)cc1 (centres unmarked) [Example 242] | 0.1 to 1 µM
O=C(O)CC(NC(=O)c1cc(O)n(-c2ccccc2F)n1)c1ccc(Cl)cc1F (centres unmarked) [Example 243] | 0.1 to 1 µM
O=C(O)CC(NC(=O)c1cc(O)n(-c2ccccc2F)n1)c1cccc(Cl)c1F (centres unmarked) [Example 244] | 0.1 to 1 µM
O=C(O)CC(NC(=O)c1cc(O)n(-c2ccccc2F)n1)c1cccc(C(F)(F)F)c1Cl (centres unmarked) [Example 245] | 0.1 to 1 µM
O=C(O)CC(NC(=O)c1cc(O)n(-c2ccccc2F)n1)c1cccc(Oc2ccc(Cl)cc2)c1 (centres unmarked) [Example 246] | 0.1 to 1 µM
Cc1ccc(C(CC(=O)O)NC(=O)c2cc(O)n(-c3ccccc3F)n2)c(C)c1 (centres unmarked) [Example 247] | 0.1 to 1 µM
Cc1cc(F)ccc1C(CC(=O)O)NC(=O)c1cc(O)n(-c2ccccc2F)n1 (centres unmarked) [Example 248] | 0.1 to 1 µM
O=C(O)CC(NC(=O)c1cc(O)n(-c2cccc(Cl)c2)n1)c1cccc2c1OCO2 (centres unmarked) [Example 249] | 0.1 to 1 µM
COc1ccc(C(CC(=O)O)NC(=O)c2cc(O)n(-c3cccc(Cl)c3)n2)c(C)c1 (centres unmarked) [Example 250] | 0.1 to 1 µM
O=C(O)C[C@H](NC(=O)c1cc(O)n(-c2cccc(Cl)c2)n1)c1ccccc1Br [Example 251] | 0.1 to 1 µM
N#Cc1cccc([C@H](CC(=O)O)NC(=O)c2cc(O)n(-c3cccc(Cl)c3)n2)c1 [Example 252] | 1 to 30 µM
COc1ccccc1[C@H](CC(=O)O)NC(=O)c1cc(O)n(-c2cccc(Cl)c2)n1 [Example 253] | 0.1 to 1 µM
O=C(O)CC(NC(=O)c1cc(O)n(-c2cccc(Cl)c2)n1)c1ccccc1F (centres unmarked) [Example 254] | 0.1 to 1 µM
COc1ccc(Cl)cc1C(CC(=O)O)NC(=O)c1cc(O)n(-c2cccc(Cl)c2)n1 (centres unmarked) [Example 255] | 0.1 to 1 µM
O=C(O)C[C@H](NC(=O)c1cc(O)n(-c2cccc(Cl)c2)n1)c1ccc(C(F)(F)F)cc1 [Example 256] | 1 to 30 µM
O=C(O)CC(NC(=O)c1cc(O)n(-c2cccc(Cl)c2)n1)c1cccc(Cl)c1Cl (centres unmarked) [Example 257] | 0.1 to 1 µM
Cc1cccc([C@H](CC(=O)O)NC(=O)c2cc(O)n(-c3cccc(Cl)c3)n2)c1 [Example 258] | 0.1 to 1 µM
O=C(O)C[C@H](NC(=O)c1cc(O)n(-c2cccc(Cl)c2)n1)c1cccc(C(F)(F)F)c1 [Example 259] | 1 to 30 µM
O=C(O)CC(NC(=O)c1cc(O)n(-c2cccc(Cl)c2)n1)c1ccc(-c2cccc(F)c2)cc1 (centres unmarked) [Example 260] | 1 to 30 µM
Cc1cccc(C(CC(=O)O)NC(=O)c2cc(O)n(-c3cccc(Cl)c3)n2)c1C (centres unmarked) [Example 261] | 0.1 to 1 µM
O=C(O)CC(NC(=O)c1cc(O)n(-c2cccc(Cl)c2)n1)c1cccc(Cl)c1F (centres unmarked) [Example 262] | 0.1 to 1 µM
O=C(O)CC(NC(=O)c1cc(O)n(-c2cccc(Cl)c2)n1)c1cccc(C(F)(F)F)c1Cl (centres unmarked) [Example 263] | 0.1 to 1 µM
CCc1ccc(C(CC(=O)O)NC(=O)c2cc(O)n(-c3cccc(Cl)c3)n2)cc1 (centres unmarked) [Example 264] | 0.1 to 1 µM
O=C(O)C[C@H](NC(=O)c1cc(O)n(-c2cccc(Cl)c2)n1)c1c(F)cccc1F [Example 265] | 0.1 to 1 µM
O=C(O)C[C@H](NC(=O)c1cc(O)n(-c2cccc(Cl)c2)n1)c1ccc(Cl)cc1Cl [Example 266] | 0.1 to 1 µM
O=C(O)CC(NC(=O)c1cc(O)n(-c2cccc(Cl)c2)n1)c1ccc(-c2ccc(F)cc2)cc1 (centres unmarked) [Example 267] | 1 to 30 µM
O=C(O)C[C@H](NC(=O)c1cc(O)n(-c2cccc(Cl)c2)n1)c1cccnc1 [Example 268] | 1 to 30 µM
COc1ccc([C@H](CC(=O)O)NC(=O)c2cc(O)n(-c3cccc(Cl)c3)n2)cn1 [Example 269] | 1 to 30 µM
O=C(O)C[C@H](NC(=O)c1cc(O)n(-c2ccc(Cl)cc2)n1)c1ccccc1Br [Example 270] | 0.1 to 1 µM

same assay, conditions: read-out: Activity (2): Cathepsin A inhibitory activity, IC50 class

SMILES | IC50
N#Cc1cccc([C@H](CC(=O)O)NC(=O)c2cc(O)n(-c3ccc(Cl)cc3)n2)c1 [Example 271] | 1 to 30 µM
N#Cc1ccc([C@H](CC(=O)O)NC(=O)c2cc(O)n(-c3ccc(Cl)cc3)n2)cc1 [Example 272] | 1 to 30 µM
COc1ccc(C(CC(=O)O)NC(=O)c2cc(O)n(-c3ccc(Cl)cc3)n2)c(OC)c1 (centres unmarked) [Example 273] | 1 to 30 µM
COc1ccccc1[C@H](CC(=O)O)NC(=O)c1cc(O)n(-c2ccc(Cl)cc2)n1 [Example 274] | 1 to 30 µM
COc1ccc(Cl)cc1C(CC(=O)O)NC(=O)c1cc(O)n(-c2ccc(Cl)cc2)n1 (centres unmarked) [Example 275] | 1 to 30 µM
O=C(O)C[C@H](NC(=O)c1cc(O)n(-c2ccc(Cl)cc2)n1)c1ccc(F)cc1 [Example 276] | 1 to 30 µM
O=C(O)C[C@H](NC(=O)c1cc(O)n(-c2ccc(Cl)cc2)n1)c1cccc(Cl)c1Cl [Example 277] | 0.1 to 1 µM
COc1cccc([C@H](CC(=O)O)NC(=O)c2cc(O)n(-c3ccc(Cl)cc3)n2)c1 [Example 278] | 1 to 30 µM
O=C(O)C[C@H](NC(=O)c1cc(O)n(-c2ccc(Cl)cc2)n1)c1cccc(F)c1 [Example 279] | 1 to 30 µM
O=C(O)C[C@H](NC(=O)c1cc(O)n(-c2ccc(Cl)cc2)n1)c1cccc(Cl)c1 [Example 280] | 1 to 30 µM
O=C(O)CC(NC(=O)c1cc(O)n(-c2ccc(Cl)cc2)n1)c1cccc(Cl)c1Cl (centres unmarked) [Example 281] | 0.1 to 1 µM
COc1ccccc1[C@@H](NC(=O)c1cc(O)n(-c2ccc(Cl)cc2)n1)[C@@H](O)C(=O)O [Example 282] | 1 to 30 µM
COc1cccc([C@H](CC(=O)O)NC(=O)c2cc(O)n(-c3ccc(Cl)cc3)n2)c1OC [Example 283] | 0.1 to 1 µM
Cc1cccc([C@H](CC(=O)O)NC(=O)c2cc(O)n(-c3ccc(Cl)cc3)n2)c1 [Example 284] | 0.1 to 1 µM
O=C(O)C[C@H](NC(=O)c1cc(O)n(-c2ccc(Cl)cc2)n1)c1cccc(C(F)(F)F)c1 [Example 285] | 1 to 30 µM
O=C(O)CC(NC(=O)c1cc(O)n(-c2ccc(Cl)cc2)n1)c1ccc(Cl)cc1F (centres unmarked) [Example 286] | 1 to 30 µM
Cc1cccc(C(CC(=O)O)NC(=O)c2cc(O)n(-c3ccc(Cl)cc3)n2)c1C (centres unmarked) [Example 287] | 0.1 to 1 µM
O=C(O)CC(NC(=O)c1cc(O)n(-c2ccc(Cl)cc2)n1)c1cccc(Cl)c1F (centres unmarked) [Example 288] | 1 to 30 µM
O=C(O)CC(NC(=O)c1cc(O)n(-c2ccc(Cl)cc2)n1)c1cccc(C(F)(F)F)c1Cl (centres unmarked) [Example 289] | 0.1 to 1 µM
O=C(O)CC(NC(=O)c1cc(O)n(-c2ccc(Cl)cc2)n1)c1cccc(Oc2ccc(Cl)cc2)c1 (centres unmarked) [Example 290] | 1 to 30 µM
Cc1ccc(C(CC(=O)O)NC(=O)c2cc(O)n(-c3ccc(Cl)cc3)n2)c(C)c1 (centres unmarked) [Example 291] | 0.1 to 1 µM
Cc1cc(F)ccc1C(CC(=O)O)NC(=O)c1cc(O)n(-c2ccc(Cl)cc2)n1 (centres unmarked) [Example 292] | 0.1 to 1 µM
O=C(O)C[C@H](NC(=O)c1cc(O)n(-c2ccc(Cl)cc2)n1)c1ccccc1F [Example 293] | 1 to 30 µM
O=C(O)CC(NC(=O)c1cc(O)n(-c2ccc(Cl)cc2)n1)c1ccc(Oc2ccccc2)cc1 (centres unmarked) [Example 294] | 1 to 30 µM
O=C(O)C[C@H](NC(=O)c1cc(O)n(-c2ccc(Cl)cc2)n1)c1c(F)cccc1F [Example 295] | 1 to 30 µM
O=C(O)C[C@H](NC(=O)c1cc(O)n(-c2ccc(Cl)cc2)n1)c1ccc(Cl)cc1 [Example 296] | 0.1 to 1 µM
